Test results reported in US9345703B2, “Kappa opioid receptor effectors and uses thereof” (University of Kansas, priority 2011, dated 2016).
pKi: −log10 of the molar value.

Legend:
in vitro = conditions: for Papp: PAMPA
Description: PAMPA is used as an in vitro model of passive, transcellular permeability. An artificial membrane immobilized on a filter is placed between a donor and acceptor compartment. At the start of the test, drug is introduced in the donor compartment (at various pH). Following the permeation period, the concentrations of compound in the donor compartment and acceptor compartment are measured using UV spectroscopy.

[1] = Plasma protein binding, human; assay type: in vitro ADME
Text: Plasma protein binding is a measure of a drug's efficiency to bind to the proteins within blood plasma. The less bound a drug is, the more efficiently it can traverse cell membranes or diffuse. Highly plasma protein bound rugs are confined to the vascular space, thereby having a relatively low volume of distribution. In contrast, drugs that remain largely unbound in plasma are generally available for distribution to other organs and tissues. In the instant case, the Chemotype I antagonist 1{3} was marginally available with 88.46% and 80.07% bound to 1 μM and 10 μM mouse plasma protein, respectively, and 93.96% and 88.54% bound to 1 μM and 10 μM human plasma protein, respectively.

Plasma stability, human = assay type: in vitro ADME
Text: (§1) Plasma stability is a measure of the stability of small molecules and peptides in plasma and is an important parameter that can strongly influence the in vivo efficacy of a test compound. Drug candidates are exposed in plasma to enzymatic processes (proteinases, esterases), and they can undergo intramolecular rearrangement or bind irreversibly (covalently) to proteins.

Plasma stability, mouse = assay type: in vitro ADME
Text: as §1

5ht1a = 5ht1a (Homo sapiens, UniProt P08908); experiment: PDSP radioligand binding assay
Chain of 5ht1a (P08908 whole entry, species assumed): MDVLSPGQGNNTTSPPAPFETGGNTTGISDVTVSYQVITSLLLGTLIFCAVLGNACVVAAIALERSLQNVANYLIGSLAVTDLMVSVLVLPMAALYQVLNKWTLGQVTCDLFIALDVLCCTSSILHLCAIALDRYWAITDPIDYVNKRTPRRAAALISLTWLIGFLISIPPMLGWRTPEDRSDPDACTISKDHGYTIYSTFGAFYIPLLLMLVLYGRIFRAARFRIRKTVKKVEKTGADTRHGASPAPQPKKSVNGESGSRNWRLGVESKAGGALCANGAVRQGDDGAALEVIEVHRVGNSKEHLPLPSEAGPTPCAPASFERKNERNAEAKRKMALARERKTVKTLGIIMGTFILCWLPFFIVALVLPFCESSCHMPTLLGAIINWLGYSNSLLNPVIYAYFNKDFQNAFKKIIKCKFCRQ
Description: (§2) The compound was initially screened in radioligand binding assays at a constant concentration (10 μM) to identify possible activity of the compound. Results showing significant activity in the initial screen were selected for Ki determinations.
(§3) As a representative of the Chemotype II series, the MLPCN probe molecule 2{8} was subjected to a binding assay panel of 44 GPCR and other molecular targets by the Pyschoactive Drug Screening Program (PDSP) (Table 10). The compound was initially screened in a radioligand binding assay at a constant concentration (10 μM) to identify possible activity of the compound. Results showing significant activity in the initial screen were selected for Ki determinations.

5ht1b = 5ht1b (Homo sapiens, UniProt P28222); experiment: PDSP radioligand binding assay
Description: as §2, §3

5ht1d = 5ht1d (Homo sapiens, UniProt P28221); experiment: PDSP radioligand binding assay
Chain of 5ht1d (P28221 whole entry, species assumed): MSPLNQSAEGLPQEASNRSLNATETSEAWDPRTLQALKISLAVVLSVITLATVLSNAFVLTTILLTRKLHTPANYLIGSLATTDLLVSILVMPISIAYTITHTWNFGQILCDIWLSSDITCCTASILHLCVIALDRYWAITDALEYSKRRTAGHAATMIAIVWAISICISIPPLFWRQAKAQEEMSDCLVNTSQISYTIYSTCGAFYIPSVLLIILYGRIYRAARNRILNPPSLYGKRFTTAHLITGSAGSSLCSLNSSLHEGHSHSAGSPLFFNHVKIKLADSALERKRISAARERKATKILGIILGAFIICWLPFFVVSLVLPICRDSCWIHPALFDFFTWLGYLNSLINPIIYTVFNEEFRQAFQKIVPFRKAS
Description: as §2, §3

5ht1e = 5ht1e (Homo sapiens, UniProt P28566); experiment: PDSP radioligand binding assay
Description: as §2, §3

5ht2b = 5ht2b (Homo sapiens, UniProt P41595); experiment: PDSP radioligand binding assay
Description: as §2, §3

5ht2c = 5ht2c (Homo sapiens, UniProt P28335); experiment: PDSP radioligand binding assay
Chain of 5ht2c (P28335 33-458, species assumed): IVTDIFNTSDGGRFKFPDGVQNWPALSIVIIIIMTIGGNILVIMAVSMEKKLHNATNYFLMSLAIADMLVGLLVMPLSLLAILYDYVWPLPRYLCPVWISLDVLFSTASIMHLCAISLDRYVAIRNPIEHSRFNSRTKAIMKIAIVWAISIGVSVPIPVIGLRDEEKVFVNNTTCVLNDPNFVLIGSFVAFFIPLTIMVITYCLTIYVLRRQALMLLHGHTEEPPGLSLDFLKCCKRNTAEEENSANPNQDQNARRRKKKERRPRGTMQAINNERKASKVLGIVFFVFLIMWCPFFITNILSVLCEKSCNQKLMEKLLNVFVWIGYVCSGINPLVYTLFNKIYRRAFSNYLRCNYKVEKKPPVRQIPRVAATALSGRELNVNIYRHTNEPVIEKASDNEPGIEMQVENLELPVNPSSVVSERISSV
Description: as §2, §3

5ht3 = 5ht3 (Homo sapiens, UniProt P46098); experiment: PDSP radioligand binding assay
Description: as §2, §3

5ht6 = 5ht6 (Homo sapiens, UniProt P50406); experiment: PDSP radioligand binding assay
Description: as §2, §3

5ht7 = 5ht7 (Homo sapiens, UniProt P34969); experiment: PDSP radioligand binding assay
Description: as §2, §3

Alpha1B = Alpha1B (Homo sapiens, UniProt P35368); experiment: PDSP radioligand binding assay
Chain of Alpha1B (P35368 whole entry): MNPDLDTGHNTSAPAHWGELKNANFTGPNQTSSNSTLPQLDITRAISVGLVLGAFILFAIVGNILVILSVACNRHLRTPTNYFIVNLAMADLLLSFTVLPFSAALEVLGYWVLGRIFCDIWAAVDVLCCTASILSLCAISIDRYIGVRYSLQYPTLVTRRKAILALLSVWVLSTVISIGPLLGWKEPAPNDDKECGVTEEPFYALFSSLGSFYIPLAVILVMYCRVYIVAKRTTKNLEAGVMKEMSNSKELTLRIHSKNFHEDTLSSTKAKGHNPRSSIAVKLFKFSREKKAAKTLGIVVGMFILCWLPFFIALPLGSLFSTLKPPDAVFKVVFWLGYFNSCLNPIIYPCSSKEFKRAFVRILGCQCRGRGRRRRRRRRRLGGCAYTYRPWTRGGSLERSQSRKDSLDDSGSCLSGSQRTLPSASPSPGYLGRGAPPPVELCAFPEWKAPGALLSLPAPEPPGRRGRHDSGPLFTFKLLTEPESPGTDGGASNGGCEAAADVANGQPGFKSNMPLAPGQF
Description: as §2, §3

Alpha1D = Alpha1D (Homo sapiens, UniProt P25100); experiment: PDSP radioligand binding assay
Description: as §2, §3

Alpha2A = Alpha2A (Homo sapiens, UniProt P08913); experiment: PDSP radioligand binding assay
Chain of Alpha2A (P08913 whole entry): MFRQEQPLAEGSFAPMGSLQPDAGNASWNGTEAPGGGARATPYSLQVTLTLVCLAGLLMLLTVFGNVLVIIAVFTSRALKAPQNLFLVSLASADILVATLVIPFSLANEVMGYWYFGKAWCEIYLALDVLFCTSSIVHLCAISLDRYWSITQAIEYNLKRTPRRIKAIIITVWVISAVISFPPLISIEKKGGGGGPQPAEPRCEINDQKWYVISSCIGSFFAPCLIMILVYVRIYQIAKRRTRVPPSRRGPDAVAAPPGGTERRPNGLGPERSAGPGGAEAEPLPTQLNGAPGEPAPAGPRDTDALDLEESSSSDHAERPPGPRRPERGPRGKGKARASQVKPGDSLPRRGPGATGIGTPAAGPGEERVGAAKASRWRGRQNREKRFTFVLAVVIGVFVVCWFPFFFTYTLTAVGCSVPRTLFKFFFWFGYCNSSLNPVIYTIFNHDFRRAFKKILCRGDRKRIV
Description: as §2, §3

Alpha2C = Alpha2C (Homo sapiens, UniProt P18825); experiment: PDSP radioligand binding assay
Chain of Alpha2C (P18825 whole entry): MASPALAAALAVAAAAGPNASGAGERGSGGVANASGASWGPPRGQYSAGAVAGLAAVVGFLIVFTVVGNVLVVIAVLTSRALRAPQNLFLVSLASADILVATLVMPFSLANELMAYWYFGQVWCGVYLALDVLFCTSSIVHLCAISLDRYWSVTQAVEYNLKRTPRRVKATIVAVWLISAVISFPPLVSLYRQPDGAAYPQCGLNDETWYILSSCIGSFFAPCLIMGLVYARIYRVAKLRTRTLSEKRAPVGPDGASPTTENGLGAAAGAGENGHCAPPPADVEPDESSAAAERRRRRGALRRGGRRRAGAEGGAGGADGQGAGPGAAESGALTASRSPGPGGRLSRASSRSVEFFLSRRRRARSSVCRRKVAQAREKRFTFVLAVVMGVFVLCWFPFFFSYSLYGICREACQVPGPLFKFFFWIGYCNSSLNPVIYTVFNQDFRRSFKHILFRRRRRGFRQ
Description: as §2, §3

BZP Rat Brain Site = experiment: PDSP radioligand binding assay
Description: as §2, §3

Beta1 = Beta1 (Homo sapiens, UniProt P08588); experiment: PDSP radioligand binding assay
Chain of Beta1 (P08588 whole entry): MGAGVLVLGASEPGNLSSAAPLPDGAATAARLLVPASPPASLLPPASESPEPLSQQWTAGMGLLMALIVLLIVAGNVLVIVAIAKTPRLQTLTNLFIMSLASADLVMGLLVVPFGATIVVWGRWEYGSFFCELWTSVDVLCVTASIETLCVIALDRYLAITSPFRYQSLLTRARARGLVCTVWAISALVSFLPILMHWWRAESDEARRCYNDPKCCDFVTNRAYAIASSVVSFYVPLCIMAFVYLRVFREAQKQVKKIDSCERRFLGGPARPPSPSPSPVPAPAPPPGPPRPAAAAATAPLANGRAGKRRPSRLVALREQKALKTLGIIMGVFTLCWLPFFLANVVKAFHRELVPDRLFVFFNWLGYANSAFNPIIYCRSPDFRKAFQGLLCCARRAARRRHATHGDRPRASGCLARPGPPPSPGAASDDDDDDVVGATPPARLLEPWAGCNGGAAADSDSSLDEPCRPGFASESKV
Description: as §2, §3

Beta2 = Beta2 (Homo sapiens, UniProt P07550); experiment: PDSP radioligand binding assay
Chain of Beta2 (P07550 whole entry): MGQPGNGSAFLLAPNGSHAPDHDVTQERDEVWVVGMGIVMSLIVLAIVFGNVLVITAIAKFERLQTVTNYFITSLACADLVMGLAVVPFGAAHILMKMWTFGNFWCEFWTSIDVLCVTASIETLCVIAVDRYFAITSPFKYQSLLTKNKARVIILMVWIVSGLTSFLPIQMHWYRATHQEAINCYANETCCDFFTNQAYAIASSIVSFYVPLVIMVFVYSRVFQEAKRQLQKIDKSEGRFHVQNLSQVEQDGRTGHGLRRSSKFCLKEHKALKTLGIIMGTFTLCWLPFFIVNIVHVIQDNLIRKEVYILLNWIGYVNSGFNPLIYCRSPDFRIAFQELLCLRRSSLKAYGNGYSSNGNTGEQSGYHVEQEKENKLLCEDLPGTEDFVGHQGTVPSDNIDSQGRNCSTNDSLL
Description: as §2, §3

Beta3 = Beta3 (Homo sapiens, UniProt P13945); experiment: PDSP radioligand binding assay
Description: as §2, §3

D1 = D1 (Homo sapiens, UniProt P21728); experiment: PDSP radioligand binding assay
Description: as §2, §3

D2 = D2 (Homo sapiens, UniProt P14416); experiment: PDSP radioligand binding assay
Chain of D2 (P14416 whole entry): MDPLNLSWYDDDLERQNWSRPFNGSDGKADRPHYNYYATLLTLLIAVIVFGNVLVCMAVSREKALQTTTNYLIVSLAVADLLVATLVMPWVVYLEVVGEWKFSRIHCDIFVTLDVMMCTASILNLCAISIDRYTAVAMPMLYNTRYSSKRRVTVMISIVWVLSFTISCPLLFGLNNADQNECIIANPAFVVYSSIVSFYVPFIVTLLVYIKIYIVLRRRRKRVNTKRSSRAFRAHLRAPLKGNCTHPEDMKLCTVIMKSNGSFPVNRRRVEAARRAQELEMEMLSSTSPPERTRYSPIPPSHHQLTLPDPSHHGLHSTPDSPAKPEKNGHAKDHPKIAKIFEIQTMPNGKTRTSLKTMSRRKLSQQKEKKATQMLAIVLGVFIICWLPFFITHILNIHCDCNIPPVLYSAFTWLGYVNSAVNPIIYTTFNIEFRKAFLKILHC
Description: as §2, §3

D5 = D5 (Homo sapiens, UniProt P21918); experiment: PDSP radioligand binding assay
Description: as §2, §3

GabaA = experiment: PDSP radioligand binding assay
Description: as §2, §3

H1 = H1 (Homo sapiens, UniProt P35367); experiment: PDSP radioligand binding assay
Description: as §2, §3

H2 = H2 (Homo sapiens, UniProt P25021); experiment: PDSP radioligand binding assay
Description: as §2, §3

M1 = M1 (Homo sapiens, UniProt P11229); experiment: PDSP radioligand binding assay
Description: as §2, §3

M2 = M2 (Homo sapiens, UniProt P08172); experiment: PDSP radioligand binding assay
Chain of M2 (P08172 whole entry): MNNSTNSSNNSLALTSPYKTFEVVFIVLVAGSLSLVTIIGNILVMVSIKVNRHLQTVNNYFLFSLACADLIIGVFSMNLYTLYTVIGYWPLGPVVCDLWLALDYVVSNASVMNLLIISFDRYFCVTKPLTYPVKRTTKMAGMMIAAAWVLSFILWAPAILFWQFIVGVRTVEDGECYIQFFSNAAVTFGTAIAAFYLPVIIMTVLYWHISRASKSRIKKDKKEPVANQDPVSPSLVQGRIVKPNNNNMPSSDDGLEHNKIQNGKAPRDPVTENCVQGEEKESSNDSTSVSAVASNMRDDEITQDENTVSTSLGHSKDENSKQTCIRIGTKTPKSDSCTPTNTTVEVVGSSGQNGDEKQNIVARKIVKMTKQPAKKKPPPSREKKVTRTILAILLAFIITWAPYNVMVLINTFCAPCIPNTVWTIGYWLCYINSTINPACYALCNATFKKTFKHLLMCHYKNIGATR
Description: as §2, §3

M3 = M3 (Homo sapiens, UniProt P20309); experiment: PDSP radioligand binding assay
Description: as §2, §3

M4 = M4 (Homo sapiens, UniProt P08173); experiment: PDSP radioligand binding assay
Chain of M4 (P08173 whole entry): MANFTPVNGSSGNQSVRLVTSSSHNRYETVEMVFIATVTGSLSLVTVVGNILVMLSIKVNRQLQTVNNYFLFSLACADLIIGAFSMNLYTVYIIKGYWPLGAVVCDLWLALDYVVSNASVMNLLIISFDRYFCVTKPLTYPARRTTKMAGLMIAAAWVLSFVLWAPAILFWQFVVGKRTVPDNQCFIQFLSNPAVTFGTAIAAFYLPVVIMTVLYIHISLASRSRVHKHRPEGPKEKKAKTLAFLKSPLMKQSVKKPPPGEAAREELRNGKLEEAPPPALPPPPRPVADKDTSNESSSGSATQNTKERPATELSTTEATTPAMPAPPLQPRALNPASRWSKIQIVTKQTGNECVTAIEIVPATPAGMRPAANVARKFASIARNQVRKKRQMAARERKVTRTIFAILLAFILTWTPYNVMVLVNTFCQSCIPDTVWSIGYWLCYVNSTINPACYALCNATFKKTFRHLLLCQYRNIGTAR
Description: as §2, §3

M5 = M5 (Homo sapiens, UniProt P08912); experiment: PDSP radioligand binding assay
Description: as §2, §3

NET = NET (Homo sapiens, UniProt P23975); experiment: PDSP radioligand binding assay
Description: as §2, §3

SERT = SERT (Homo sapiens, UniProt P31645); experiment: PDSP radioligand binding assay
Description: as §2, §3

Sigma1 = experiment: PDSP radioligand binding assay
Description: as §2, §3

COc1ccc(N2CCN(CCCNC(=O)Cn3c(=O)c4cccn4c4c(C)ccnc43)CC2)cc1 [Compound 1{3}, N-(3-(4-(4-Methoxyphenyl)piperazin-1-yl)propyl)-2-(1-methyl-6-oxopyrido[2,3-e]pyrrolo[1,2-a]pyrazin-5(6H)-yl)acetamide]
Papp (in vitro; pH 5): 27 ×10⁻⁶ cm/s | Papp (in vitro; pH 6.2): 227 ×10⁻⁶ cm/s | Papp (in vitro; pH 7.4): 757 ×10⁻⁶ cm/s | fraction unbound at 1 μM ([1]; plasma, human, 1 μM, read-out: bound to plasma protein (converted)): 0.0604 | fraction unbound at 10 μM ([1]; plasma, human, 10 μM, read-out: bound to plasma protein (converted)): 0.115 | plasma stability, remaining (Plasma stability, human; human, plasma, 3 h): 100% | plasma stability, remaining (Plasma stability, mouse; mouse, plasma, 3 h): 100% | pKi (5ht1a; Table 5): < 5.00 | pKi (5ht1b; Table 5): < 5.00 | pKi (5ht1d; Table 5): 6.15 | pKi (5ht1e; Table 5): < 5.00 | pKi (5ht2b; Table 5): 5.72 | pKi (5ht2c; Table 5): < 5.00 | pKi (5ht3; Table 5): < 5.00 | pKi (5ht6; Table 5): < 5.00 | pKi (5ht7; Table 5): < 5.00 | pKi (Alpha1B; Table 5): < 5.00 | pKi (Alpha1D; Table 5): < 5.00 | pKi (Alpha2A; Table 5): < 5.00 | pKi (Alpha2C; Table 5): 6.16 | pKi (BZP Rat Brain Site; Table 5): < 5.00 | pKi (Beta1; Table 5): < 5.00 | pKi (Beta2; Table 5): < 5.00 | pKi (Beta3; Table 5): < 5.00 | pKi (D1; Table 5): < 5.00 | pKi (D2; Table 5): 5.87 | pKi (D5; Table 5): < 5.00 | pKi (GabaA; Table 5): < 5.00 | pKi (H1; Table 5): 6.34 | pKi (H2; Table 5): 5.46 | pKi (M1; Table 5): < 5.00 | pKi (M2; Table 5): < 5.00 | pKi (M3; Table 5): < 5.00 | pKi (M4; Table 5): < 5.00 | pKi (M5; Table 5): 5.19 | pKi (NET; Table 5): 6.16 | pKi (SERT; Table 5): 5.27 | pKi (Sigma1; Table 5): < 5.00

Clc1ccc(CSc2nnc(-c3ccccn3)n2Cc2ccco2)cc1Cl [Compound 2{8}]
PAMPA permeability (in vitro; donor pH 5): 1793 ×10⁻⁶ cm/s | PAMPA permeability (in vitro; donor pH 6.2): 1921 ×10⁻⁶ cm/s | PAMPA permeability (in vitro; donor pH 7.4): 2089 ×10⁻⁶ cm/s | bound to plasma ([1]; human plasma): > 99% | plasma stability, remaining (Plasma stability, human; human plasma, 3 hours): 100% | plasma stability, remaining (Plasma stability, mouse; mouse plasma, 3 hours): 100% | pKi (5ht1a; Table 10): < 5.00 | pKi (5ht1b; Table 10): < 5.00 | pKi (5ht1d; Table 10): < 5.00 | pKi (5ht1e; Table 10): < 5.00 | pKi (5ht2b; Table 10): 5.91 | pKi (5ht2c; Table 10): < 5.00 | pKi (5ht3; Table 10): < 5.00 | pKi (5ht6; Table 10): < 5.00 | pKi (5ht7; Table 10): < 5.00 | pKi (Alpha1B; Table 10): < 5.00 | pKi (Alpha1D; Table 10): < 5.00 | pKi (Alpha2A; Table 10): < 5.00 | pKi (Alpha2C; Table 10): 5.02 | pKi (BZP Rat Brain Site; Table 10): < 5.00 | pKi (Beta1; Table 10): < 5.00 | pKi (Beta2; Table 10): < 5.00 | pKi (Beta3; Table 10): 5.14 | pKi (D1; Table 10): 5.75 | pKi (D2; Table 10): < 5.00 | pKi (D5; Table 10): 5.15 | pKi (GabaA; Table 10): < 5.00 | pKi (H1; Table 10): < 5.00 | pKi (H2; Table 10): < 5.00 | pKi (M1; Table 10): < 5.00 | pKi (M2; Table 10): < 5.00 | pKi (M3; Table 10): < 5.00 | pKi (M4; Table 10): < 5.00 | pKi (M5; Table 10): 5.35 | pKi (NET; Table 10): 5.23 | pKi (SERT; Table 10): < 5.00 | pKi (Sigma1; Table 10): < 5.00
